{"source": "patent US12448600B2", "about": "“Extraction of antimethanogenic compounds” (priority 2023, dated 2025)", "origin": "cited, not measured here", "key": {"[1]": {"settings": "pure form"}, "[2]": {"settings": "20° C., cell prints mmHg under a kPa head"}}, "note": "Where two headings read alike, the source gives them in different places."}
{"smiles": "O=[N+]([O-])OCCCO", "note": "[3-NOP, 3-nitrooxypropanol]", "values": [{"measurement": "Reduction in CH4 production", "setting": "CH4 production; cows, twice daily dosing, 80 mg per kg dry matter intake, 3 hours post-administration", "value": 29, "unit": "%"}, {"measurement": "Reduction in methane emissions", "setting": "CH4 production; single dose", "value": "< 30", "unit": "%"}, {"measurement": "Time the reduction in methane emissions is maintained", "setting": "CH4 production; single dose", "value": "3 to 4", "unit": "h"}]}
{"smiles": "ClC(Cl)Br", "note": "[Bromodichloromethane]", "values": [{"measurement": "Vapor pressure", "setting": "[1]; 20° C.", "value": 6.6, "unit": "kPa"}]}
{"smiles": "BrC(Br)Br", "note": "[Bromoform]", "values": [{"measurement": "Vapor pressure", "setting": "[1]; 20° C.", "value": 0.67, "unit": "kPa"}]}
{"smiles": "ClC(Cl)Cl", "note": "[Chloroform]", "values": [{"measurement": "Vapor pressure", "setting": "[1]; [2]", "value": 212, "unit": "mmHg"}]}
{"smiles": "BrCBr", "note": "[Dibromomethane]", "values": [{"measurement": "Vapor pressure", "setting": "[1]; 20° C.", "value": 4.7, "unit": "kPa"}]}
{"smiles": "FC(F)F", "note": "[Fluoroform]", "values": [{"measurement": "Vapor pressure", "setting": "[1]; 20° C.", "value": 4000, "unit": "kPa"}]}
{"smiles": "IC(I)I", "note": "[Iodoform]", "values": [{"measurement": "Vapor pressure", "setting": "[1]; [2]", "value": 0.04, "unit": "mmHg"}]}
{"smiles": "CBr", "note": "[Methyl bromide]", "values": [{"measurement": "Vapor pressure", "setting": "[1]; [2]", "value": 1893, "unit": "mmHg"}]}
{"smiles": "CF", "note": "[Methyl fluoride]", "values": [{"measurement": "Vapor pressure", "setting": "[1]; at 21° C.", "value": 3300, "unit": "at 21 °C kPa"}]}
{"smiles": "CI", "note": "[Methyl iodide]", "values": [{"measurement": "Vapor pressure", "setting": "[1]; 20° C.", "value": 50, "unit": "kPa"}]}
{"smiles": "ClC=C(Cl)Cl", "note": "[Trichlorethylene]", "values": [{"measurement": "Vapor pressure", "setting": "[1]; 20° C.", "value": 7.8, "unit": "kPa"}]}
